Reference: ChEMBL document CHEMBL1136896, “Synthesis and biological evaluation of arylhydrazinocyanoacrylates and N-aryl pyrazolecarboxylates” (2009)

Key:
Assay type in all cases: functional
Digitaria sanguinalis [1] = test: Herbicidal activity against Digitaria sanguinalis (L.) Scop. at 1.5 kg/hectare administered preemergence of first true leaf measured after 10 days; details: pre-emergence, 240 h
Amaranthus retroflexus [2] = test: Herbicidal activity against Amaranthus retroflexus at 1.5 kg/hectare administered postemergence of first true leaf measured after 10 days; details: post-emergence, 240 h
Digitaria sanguinalis [3] = test: Herbicidal activity against Digitaria sanguinalis at 1.5 kg/hectare administered postemergence of first true leaf measured after 10 days; details: post-emergence, 240 h
Medicago sativa [4] = test: Herbicidal activity against Medicago sativa at 1.5 kg/hectare administered postemergence of first true leaf measured after 10 days; details: post-emergence, 240 h
Medicago sativa [5] = test: Herbicidal activity against Medicago sativa at 1.5 kg/hectare administered preemergence of first true leaf measured after 10 days; details: pre-emergence, 240 h
Brassica napus [6] = test: Herbicidal activity against Brassica napus L. at 1.5 kg/hectare administered preemergence of first true leaf measured after 10 days; details: pre-emergence, 240 h
Brassica napus [7] = test: Herbicidal activity against Brassica napus at 1.5 kg/hectare administered postemergence of first true leaf measured after 10 days; details: post-emergence, 240 h
Amaranthus retroflexus [8] = test: Herbicidal activity against Amaranthus retroflexus at 1.5 kg/hectare administered preemergence of first true leaf measured after 10 days; details: pre-emergence, 240 h
HL-60 [9] = test: Antitumor activity against human HL60 cells at 1 uM/L after 72 hrs by MTT assay; details: HL-60, 72 h
[10] = tested on: Botryosphaeria berengeriana; test: Fungicidal activity against Physalospora pyricola assessed as inhibition of mycelium growth at 50 mg/L after 72 hrs
Bel-7402 [11] = test: Antitumor activity against human Bel7402 cells at 1000 uM/L after 72 hrs by MTT assay; details: Bel-7402, 72 h
Bel-7402 [12] = test: Antitumor activity against human Bel7402 cells at 10 uM/L after 72 hrs by MTT assay; details: Bel-7402, 72 h
Bel-7402 [13] = test: Antitumor activity against human Bel7402 cells at 100 uM/L after 72 hrs by MTT assay; details: Bel-7402, 72 h
Cucumis sativus = test: Growth regulatory activity in cucumber assessed as root growth at 10 mg/L incubated in dark for 5 days
HL-60 [14] = test: Antitumor activity against human HL60 cells at 10 uM/L after 72 hrs by MTT assay; details: HL-60, 72 h
Alternaria solani = test: Fungicidal activity against Alternaria solani assessed as inhibition of mycelium growth at 50 mg/L after 72 hrs
Cladosporium cucumerinum = test: Fungicidal activity against Cladosporium cucumerinum assessed as inhibition of mycelium growth at 50 mg/L after 72 hrs
HL-60 [15] = test: Antitumor activity against human HL60 cells at 1000 uM/L after 72 hrs by MTT assay; details: HL-60, 72 h
HL-60 [16] = test: Antitumor activity against human HL60 cells at 100 uM/L after 72 hrs by MTT assay; details: HL-60, 72 h
Bel-7402 [17] = test: Antitumor activity against human Bel7402 cells at 1 uM/L after 72 hrs by MTT assay; details: Bel-7402, 72 h
Fusarium graminearum = test: Fungicidal activity against Gibberella zeae assessed as inhibition of mycelium growth at 50 mg/L after 72 hrs
Mycosphaerella arachidis = test: Fungicidal activity against Cercospora arachidicola assessed as inhibition of mycelium growth at 50 mg/L after 72 hrs

Structure (SMILES)	inhibition at 1500 g/ha (Digitaria sanguinalis [1]) [%]	inhibition at 1500 g/ha (Amaranthus retroflexus [2]) [%]	inhibition at 1500 g/ha (Digitaria sanguinalis [3]) [%]	inhibition at 1500 g/ha (Medicago sativa [4]) [%]	inhibition at 1500 g/ha (Medicago sativa [5]) [%]	inhibition at 1500 g/ha (Brassica napus [6]) [%]	inhibition at 1500 g/ha (Brassica napus [7]) [%]	inhibition at 1500 g/ha (Amaranthus retroflexus [8]) [%]	inhibition at 1 µM (HL-60 [9]) [%]	inhibition at 50 µg/mL [10] [%]	inhibition at 1000 µM (Bel-7402 [11]) [%]	inhibition at 10 µM (Bel-7402 [12]) [%]	inhibition at 100 µM (Bel-7402 [13]) [%]	Activity (Cucumis sativus) [%]	inhibition at 10 µM (HL-60 [14]) [%]	inhibition at 50 µg/mL (Alternaria solani) [%]	inhibition at 50 µg/mL (Cladosporium cucumerinum) [%]	inhibition at 1000 µM (HL-60 [15]) [%]	inhibition at 50 µg/mL (Fusarium graminearum) [%]	inhibition at 50 µg/mL (Mycosphaerella arachidis) [%]	further results
CCOCCOC(=O)/C(C#N)=C(\NCc1ccc(Cl)nc1)SC	18.8	100	54.1	55.3	3.6	47.6	100	32.4	–	–	–	–	–	–	–	–	–	–	–	–	–
CCOCCOC(=O)/C(C#N)=C(\NNc1c(Cl)cc(Cl)cc1Cl)C(C)C	0	13.3	17.9	21	0	0	0	0	0	6.7	84.3	12.7	9	-2.2	0	10	8.3	80.3	4.8	18.2	inhibition at 100 µM (HL-60 [16]): 20.8%; inhibition at 1 µM (Bel-7402 [17]): 5.2%
CCOCCOC(=O)c1c(SC)nn(-c2ccccc2)c1N	0	32	0	38.3	0	0	53.6	10	4.3	0	49	0	0	50.4	6.8	8	12.7	10.6	42.2	41.2	inhibition at 100 µM (HL-60 [16]): 0.6%; inhibition at 1 µM (Bel-7402 [17]): 0%
CCOCCOC(=O)c1c(SC)nn(-c2ccc(Cl)cc2)c1N	0	0	0	0	0	0	0	0	–	36	–	–	–	66.6	–	20	23.6	–	37.8	26.5	–
CCOCCOC(=O)c1c(CC)nn(-c2ccc(Cl)cc2)c1N	0	0	0	0	0	0	0	0	–	38.7	–	–	–	111.3	–	0	14.5	–	53.3	41.2	–
CCOCCOC(=O)c1c(C(C)C)nn(-c2ccc(Cl)cc2)c1N	0	0	0	0	0	40	26.4	0	–	33.3	–	–	–	38.2	–	0	23.6	–	44.4	23.5	–
CCOCCOC(=O)c1c(SC)nn(-c2ccc([N+](=O)[O-])cc2)c1N	0	0	0	38.3	0	0	0	0	2.4	13.3	48.4	0	4.2	54.4	0	8	12.7	28.5	51.1	11.8	inhibition at 100 µM (HL-60 [16]): 22.3%; inhibition at 1 µM (Bel-7402 [17]): 5.5%
CCOCCOC(=O)c1c(C(C)C)nn(-c2ccc(C)cc2)c1N	0	0	0	20	0	15	40.7	0	–	13.3	–	–	–	21.9	–	12	40	–	51.1	20.6	–
CCOCCOC(=O)c1c(CC)nn(-c2ccccc2)c1N	0	0	0	0	0	0	61.5	0	–	1.3	–	–	–	46.3	–	20	18.2	–	46.7	35.3	–
CCOCCOC(=O)c1c(C(C)C)nn(-c2ccccc2)c1N	0	0	0	0	0	15	58.8	0	–	32	–	–	–	46.3	–	32	1.8	–	46.7	20.6	–
CCOCCOC(=O)c1c(CC)nn(-c2ccc([N+](=O)[O-])cc2)c1N	0	0	0	0	0	0	15	0	0.8	40	45.2	0	0	5.6	1.3	8	36.4	41.5	11.1	39.2	inhibition at 100 µM (HL-60 [16]): 13.1%; inhibition at 1 µM (Bel-7402 [17]): 0%
CCOCCOC(=O)c1c(SC)nn(-c2ccc(C)cc2)c1N	0	38	0	0	0	10	52.7	0	–	22.7	–	–	–	66.6	–	28	20	–	46.7	35.3	–
CCOCCOC(=O)/C(C#N)=C(/CC)NNc1c(Cl)cc(Cl)cc1Cl	0	13.3	1.8	5.6	0	0	0	8.8	2.5	46.7	95.9	3.9	3.6	-16.5	23.1	25	22.2	84.3	19.2	15.5	inhibition at 100 µM (HL-60 [16]): 36.6%; inhibition at 1 µM (Bel-7402 [17]): 0%
CC1COC(Cn2cncn2)(c2ccc(Oc3ccc(Cl)cc3)cc2Cl)O1 (configuration not stated) [DIFENOCONAZOLE]	–	–	–	–	–	–	–	–	–	100	–	–	–	–	–	100	100	–	100	100	–
O=C(O)Cc1c[nH]c2ccccc12 [INDOLE-3-ACETIC ACID]	–	–	–	–	–	–	–	–	–	–	–	–	–	>150	–	–	–	–	–	–	–
